Results published in patent publication US7138361B2, “Herbicidal heterocycles” (E. I. du Pont de Nemours and Company, priority 2000, dated 2006).

What was measured:
Type in all cases: in vivo
[1] = test system: Sunflower; assay: Test C preemergence; settings: visual evaluation after 12 to 14 days
[2] = test system: bermudagrass (Cynodon dactylon); assay: Test C preemergence; settings: for Plant response rating (0 to 100 where 0 is no effect and 100 is complete control), Bermudagrass: visual evaluation after 12 to 14 days
Procedure, shortened: (§1)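 Plants held in greenhouse for 12–14 days post-application are scored by eye against controls on a 0–100 control scale. Application timing: preemergence on sown seed, or postemergence on 2–18 cm plants.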

[3] = test system: johnsongrass (Sorghum halepense); assay: Test C preemergence; settings: for Plant response rating (0 to 100), Johnsongrass: visual evaluation after 12 to 14 days
Procedure, shortened: as §1

[4] = test system: kochia (Kochia scoparia); assay: Test C preemergence; settings: for Plant response rating (0 to 100), Kochia: visual evaluation after 12 to 14 days
Procedure, shortened: as §1

[5] = test system: Sunflower; assay: Test C preemergence; settings: scale 0 to 100, 0 no effect, 100 complete control
[6] = test system: morningglory (Ipomoea hederacea); assay: Test C preemergence; settings: for Plant response rating (0 to 100), Morningglory: visual evaluation after 12 to 14 days
Procedure, shortened: as §1

[7] = test system: corn (Zea mays); assay: Test C preemergence; settings: for Plant response rating (0 to 100), Corn: visual evaluation after 12 to 14 days
Procedure, shortened: as §1

[8] = test system: yellow nutsedge (Cyperus esculentus); assay: Test C preemergence; settings: for Plant response rating (0 to 100), Nutsedge: visual evaluation after 12 to 14 days
Procedure, shortened: as §1

[9] = test system: giant foxtail (Setaria faberii); assay: Test C preemergence; settings: for Plant response rating (0 to 100), Foxtail, Giant: visual evaluation after 12 to 14 days
Procedure, shortened: as §1

[10] = test system: velvetleaf (Abutilon theophrasti); assay: Test C preemergence; settings: for Plant response rating (0 to 100), Velvetleaf: visual evaluation after 12 to 14 days
Procedure, shortened: as §1

[11] = test system: wild oat (Avena fatua); assay: Test B postemergence; settings: 13 to 15 days
Procedure, shortened: (§2)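 Ratings on a 0 to 100 visual scale (100 complete control) compare treated plants with controls 13 to 15 days after application. Treatments were pre- or postemergence sprays of compound in non-phytotoxic solvent with surfactant.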

[12] = test system: blackgrass (Alopecurus myosuroides); assay: Test B postemergence; settings: 13 to 15 days
Procedure, shortened: as §2

[13] = test system: corn (Zea mays); assay: Test B postemergence; settings: 13 to 15 days
Procedure, shortened: as §2

[14] = test system: morning glory (Ipomoea hederacea); assay: Test B postemergence; settings: 13 to 15 days
Procedure, shortened: as §2

[15] = test system: giant foxtail (Setaria faberii); assay: Test B postemergence; settings: 13 to 15 days
Procedure, shortened: as §2

[16] = test system: crabgrass (Digitaria sanguinalis); assay: Test B postemergence; settings: 13 to 15 days
Procedure, shortened: as §2

[17] = test system: lambsquarters (Chenopodium album); assay: Test B postemergence; settings: 13 to 15 days
Procedure, shortened: as §2

[18] = test system: velvetleaf (Abutilon theophrasti); assay: Test B postemergence; settings: 13 to 15 days
Procedure, shortened: as §2

[19] = test system: pigweed (Amaranthus retroflexus); assay: Test B postemergence; settings: 13 to 15 days
Procedure, shortened: as §2

[20] = test system: cocklebur (Xanthium strumarium); assay: Test B postemergence; settings: 13 to 15 days
Procedure, shortened: as §2

[21] = test system: Surinam grass (Brachiaria decumbens); assay: Test B postemergence; settings: 13 to 15 days
Procedure, shortened: as §2

[22] = test system: wheat (Triticum aestivum); assay: Test B postemergence; settings: 13 to 15 days
Procedure, shortened: as §2

[23] = test system: barnyardgrass (Echinochloa crus-galli); assay: Test B postemergence; settings: 13 to 15 days
Procedure, shortened: as §2

[24] = Rate 62 g/ha, scale 0 to 100, 0 no effect, 100 complete control
[25] = preemergence, Rate 31 g/ha, scale 0 to 100
[26] = preemergence, Rate 125 g/ha, scale 0 to 100, 0 no effect, 100 complete control
[27] = Rate 125 g/ha, scale 0 (no effect) to 100 (complete control)
[28] = Rate 500 g/ha, scale 0 to 100, 0 is no effect, 100 is complete control
[29] = Rate 125 g/ha, scale 0 to 100, 0 no effect, 100 complete control
[30] = preemergence, Rate 62 g/ha, scale 0 to 100
[31] = preemergence, Rate 250 g/ha, scale 0 to 100, 0 no effect, 100 complete control

Structure (SMILES): CC(C)(C)c1ccn(C2SCN(c3cccc(OC(F)F)c3)C2=O)n1 (centres unmarked) [Compound 36]
- Plant response rating (0 to 100), Sunflower ([1]; Rate 250 g/ha): 30
- Plant response rating, Bermudagrass [2, 24]: 100
- Plant response rating, Bermudagrass [2, 25]: 100
- Plant response rating (0 to 100 where 0 is no effect and 100 is complete control), Bermudagrass ([2]; preemergence, Rate 250 g/ha): 100
- Plant response rating, Bermudagrass [2, 26]: 100
- Plant response rating, Johnsongrass [3, 24]: 90
- Plant response rating, Johnsongrass [3, 25]: 50
- Plant response rating (0 to 100), Johnsongrass ([3]; preemergence, Rate 250 g/ha): 100
- Plant response rating, Johnsongrass [3, 26]: 90
- Plant response rating, Kochia [4, 24]: 100
- Plant response rating, Kochia [4, 25]: 70
- Plant response rating (0 to 100), Kochia ([4]; preemergence, Rate 250 g/ha): 100
- Plant response rating, Kochia [4, 26]: 100
- Plant response rating, Sunflower ([5]; Rate 62 g/ha): 0
- Plant response rating, Morningglory [6, 24]: 0
- Plant response rating, Morningglory [6, 25]: 0
- Plant response rating (0 to 100), Morningglory ([6]; preemergence, Rate 250 g/ha): 50
- Plant response rating, Morningglory [6, 26]: 0
- Plant response rating, Corn [7, 24]: 20
- Plant response rating, Corn [7, 25]: 0
- Plant response rating (0 to 100), Corn ([7]; preemergence, Rate 250 g/ha): 80
- Plant response rating, Corn [7, 26]: 40
- Plant response rating, Nutsedge [8, 24]: 0
- Plant response rating, Nutsedge [8, 25]: 0
- Plant response rating (0 to 100), Nutsedge ([8]; preemergence, Rate 250 g/ha): 30
- Plant response rating, Nutsedge [8, 26]: 30
- Plant response rating, Foxtail, Giant [9, 24]: 0
- Plant response rating, Foxtail, Giant [9, 25]: 90
- Plant response rating (0 to 100), Foxtail, Giant ([9]; preemergence, Rate 250 g/ha): 100
- Plant response rating, Foxtail, Giant [9, 26]: 100
- Plant response rating, Velvetleaf [10, 24]: 0
- Plant response rating, Velvetleaf [10, 25]: 0
- Plant response rating (0 to 100), Velvetleaf ([10]; preemergence, Rate 250 g/ha): 40
- Plant response rating, Velvetleaf [10, 26]: 0
- Plant response rating, Wild Oat [11, 27]: 0
- Plant response rating, Wild Oat [11, 28]: 20
- Plant response rating, Blackgrass [12, 27]: 0
- Plant response rating, Blackgrass [12, 28]: 0
- Plant response rating, Corn [13, 27]: 0
- Plant response rating, Corn [13, 28]: 70
- Plant response rating, Morningglory [14, 27]: 30
- Plant response rating, Morningglory [14, 28]: 40
- Plant response rating, Foxtail, Giant [15, 27]: 60
- Plant response rating, Foxtail, Giant [15, 28]: 90
- Plant response rating, Crabgrass [16, 27]: 80
- Plant response rating, Crabgrass [16, 28]: 100
- Plant response rating, Lambsquarters [17, 27]: 90
- Plant response rating, Lambsquarters [17, 28]: 100
- Plant response rating, Velvetleaf [18, 27]: 0
- Plant response rating, Velvetleaf [18, 28]: 60
- Plant response rating, Pigweed [19, 27]: 90
- Plant response rating, Pigweed [19, 28]: 100
- Plant response rating, Cocklebur [20, 27]: 20
- Plant response rating, Cocklebur [20, 28]: 60
- Plant response rating, Surinam grass [21, 27]: 0
- Plant response rating, Surinam grass [21, 28]: 50
- Plant response rating, Wheat [22, 27]: 0
- Plant response rating, Wheat [22, 28]: 0
- Plant response rating, Barnyardgrass [23, 27]: 90
- Plant response rating, Barnyardgrass [23, 28]: 100

Structure (SMILES): CCC(C)c1ccn(C2CCN(c3cccc(OC)c3)C2=O)n1 (centres unmarked) [Compound 95]
- Plant response rating (0 to 100), Sunflower ([1]; Rate 500 g/ha): 10
- Plant response rating, Bermudagrass [2, 29]: 100
- Plant response rating, Bermudagrass [2, 30]: 100
- Plant response rating (0 to 100 where 0 is no effect and 100 is complete control), Bermudagrass ([2]; preemergence, Rate 500 g/ha): 100
- Plant response rating, Bermudagrass [2, 31]: 100
- Plant response rating, Johnsongrass [3, 29]: 30
- Plant response rating, Johnsongrass [3, 30]: 30
- Plant response rating (0 to 100), Johnsongrass ([3]; preemergence, Rate 500 g/ha): 90
- Plant response rating, Johnsongrass [3, 31]: 60
- Plant response rating, Kochia [4, 29]: 100
- Plant response rating, Kochia [4, 30]: 100
- Plant response rating (0 to 100), Kochia ([4]; preemergence, Rate 500 g/ha): 100
- Plant response rating, Kochia [4, 31]: 100
- Plant response rating, Sunflower ([5]; Rate 125 g/ha): 0
- Plant response rating, Morningglory [6, 29]: 0
- Plant response rating, Morningglory [6, 30]: 0
- Plant response rating (0 to 100), Morningglory ([6]; preemergence, Rate 500 g/ha): 0
- Plant response rating, Morningglory [6, 31]: 0
- Plant response rating, Corn [7, 29]: 10
- Plant response rating, Corn [7, 30]: 10
- Plant response rating (0 to 100), Corn ([7]; preemergence, Rate 500 g/ha): 40
- Plant response rating, Corn [7, 31]: 40
- Plant response rating, Nutsedge [8, 29]: 0
- Plant response rating, Nutsedge [8, 30]: 0
- Plant response rating (0 to 100), Nutsedge ([8]; preemergence, Rate 500 g/ha): 70
- Plant response rating, Foxtail, Giant [9, 29]: 0
- Plant response rating, Foxtail, Giant [9, 30]: 0
- Plant response rating (0 to 100), Foxtail, Giant ([9]; preemergence, Rate 500 g/ha): 100
- Plant response rating, Foxtail, Giant [9, 31]: 0
- Plant response rating, Velvetleaf [10, 29]: 0
- Plant response rating, Velvetleaf [10, 30]: 0
- Plant response rating (0 to 100), Velvetleaf ([10]; preemergence, Rate 500 g/ha): 0
- Plant response rating, Velvetleaf [10, 31]: 0
- Plant response rating, Wild Oat [11, 28]: 0
- Plant response rating, Blackgrass [12, 27]: 0
- Plant response rating, Blackgrass [12, 28]: 0
- Plant response rating, Corn [13, 27]: 0
- Plant response rating, Corn [13, 28]: 0
- Plant response rating, Morningglory [14, 28]: 20
- Plant response rating, Foxtail, Giant [15, 27]: 0
- Plant response rating, Foxtail, Giant [15, 28]: 0
- Plant response rating, Crabgrass [16, 27]: 0
- Plant response rating, Crabgrass [16, 28]: 20
- Plant response rating, Lambsquarters [17, 28]: 90
- Plant response rating, Velvetleaf [18, 28]: 0
- Plant response rating, Pigweed [19, 28]: 60
- Plant response rating, Cocklebur [20, 27]: 0
- Plant response rating, Cocklebur [20, 28]: 20
- Plant response rating, Surinam grass [21, 27]: 0
- Plant response rating, Surinam grass [21, 28]: 0
- Plant response rating, Wheat [22, 28]: 0
- Plant response rating, Barnyardgrass [23, 27]: 0
- Plant response rating, Barnyardgrass [23, 28]: 30
